Experimental findings from patent US8653122B2, “Oromucosal formulation and process for preparing the same” (Santhera Pharmaceuticals (Switzerland) Ltd., priority 2002, dated 2014) are described below.

Molecules are shown by their SMILES.

Data set [1] concerns dogs. Briefly: 30-day dog toxicology study using oral dosing (cardiac safety). To be noted: for maximum systemic fipamezole concentration: oral. It is filed as in vivo. The protocol: (§1) Cardiac safety was studied in dogs in a 30-day dog toxicology study using oral dosing and dog toxicology studies using buccal dosing.
In the 30-day dog toxicology study fipamezole was administered orally at doses of 1, 5, 10 and 15 mg/kg/day for 30 days, resulting in maximum systemic fipamezole concentrations of about 200, 1000, 2000 and 3300 ng/ml, respectively.

Data set [2] can be described thus: Plasma levels of fipamezole in healthy male volunteers after a single 30 mg dose (oral, oromucosal tablet, oromucosal spray). It is filed as in vivo, human. To be noted: for AUC(0-inf) / Cmax / Tmax: human, plasma; for AUC(0-inf) / Cmax / t1/2el: mean. As for the experimental part:
Plasma levels of fipamezole were studied in healthy male volunteers after oral administration of the drug as a solution. Blood samples for pharmcokinetic evaluation were collected for 24 hours after the drug administration. The concentration of fipamezole in plasma was measured with HPLC-MS/MS, and the pharmacokinetic parameters were calculated. The pharmacokinetics of fipamezole was evaluated with TopFit 2.0 pharmacokinetic program. The Cmax and tmax values were read from the concentration vs. time curves, and the apparent elimination phase half-lives from the terminal part of the semilogarithmic concentration vs. time curve (see FIG. 1). AUC values were calculated both to infinity and up to the last collection time with quantifiable fipamezole concentration. Mean plasma concentration time plot following single dose administration of 30 mg fipamezole via an oral, oromucosal spray and an oromucosal tablet on a semilogarithmic scale is shown in FIG. 1.

Data set [3] concerns dogs. Briefly: Dog toxicology study using buccal delivery for up to 4 weeks. It is filed as in vivo. To be noted: for maximum systemic concentration of fipamezole: buccal, first day. The protocol: as §1
Maximum systemic concentrations of fipamezole after dosing on the first day of this study were about 800, 2000 and 3300 ng/ml.

Data set [4] has as its system dogs. Description: Dog toxicology study, buccal spray, sequential dosing regimen (blood pressure, heart rate, ECG). It counts as in vivo. The protocol: as §1
In another toxicology study four male dogs were given fipamezole in buccal spray doses of 1, 5 and 10 mg/kg in a sequential dosing regimen with 5 to 15 days between doses. Blood pressure (systolic, diastolic and mean), heart rate and ECGs were monitored before and up to 12 hours after dosing.

Where [5] appears, read: other: oromucosal spray, oromucosal spray.
[6] abbreviates: other: oromucosal tablet, oromucosal tablet.
[7] abbreviates: buccal spray 5 and 10 mg/kg, 30 minutes after dosing.

For `CCC1(c2c[nH]cn2)Cc2ccc(F)cc2C1.Cl` (stereo not drawn) [fipamezole, 4-(2-ethyl-5-fluoroindan-2-yl)-1H-imidazole hydrochloride], the “systemic concentration of fipamezole at which QT prolongation was observed” value in the data set on dogs [1] (high oral doses, 30-day study) is “about 2000 ng/ml”. The “maximum systemic fipamezole concentration” value was “about 200 ng/ml” with dogs [1] (1 mg/kg/day for 30 days), ~1000 ng/mL in the data set on dogs [1] (5 mg/kg/day for 30 days), “about 2000 ng/ml” in the data set with dogs [1] (10 mg/kg/day for 30 days) and ~3300 ng/mL in the data set with dogs [1] (15 mg/kg/day for 30 days). Also, the results for the AUC(0-inf) in data set [2] (oral (solution)), in data set [2] (setting [5]) and in data set [2] (setting [6]) were 7.65 ng·h/mL, 157 ng·h/mL and 116 ng·h/mL, respectively. Also, the values for the Cmax in data set [2] (oral (solution)), in data set [2] (setting [5]) and in data set [2] (setting [6]) were 1.59 ng/mL, 49.2 ng/mL and 31.7 ng/mL, respectively. Moreover, the Tmax (as a rule, the time at which the peak concentration occurs) in data set [2] (oral (solution), median) turned out to be 1 h; in data set [2] (other: oromucosal spray, oromucosal spray, median) it was 0.7 h; in data set [2] (setting [6]) it was 0.85 h. Besides, the results for the t1/2el in data set [2] (oral (solution)), in data set [2] (oromucosal spray) and in data set [2] (oromucosal tablet) were 3.10 h, 2.10 h and 3.10 h, respectively. Further, in the data set on dogs [3] (buccal delivery 1, 5 and 10 mg/kg/day for up to 4 weeks), the “changes in ECG” value was “no apparent changes in ECG”. The results for the “maximum systemic concentration of fipamezole” value in the data set on dogs [3] (1 mg/kg/day), in the data set on dogs [3] (5 mg/kg/day) and with dogs [3] (10 mg/kg/day) were “about 800 ng/ml”, ~2000 ng/mL and ~3300 ng/mL, respectively. The “ECG changes (P wave amplitude, P wave duration, P-Q interval, QRS interval or Q-T interval)” value in the data set on dogs [4] (buccal spray 1, 5 and 10 mg/kg, each dose level, up to 12 hours after dosing) is on record as “No ECG changes”. For the same molecule, in the data set on dogs [4] (setting [7]), the “blood pressure (absolute values)” value was “significant transient increases”. In addition, the “heart rate (absolute values)” value in the data set with dogs [4] (setting [7]) is recorded as “significant transient increases”.
